Results: patent US20250188085A1, “COMPOSITIONS AND METHODS FOR INHIBITION OF RAS” (THERAS, INC., priority 2022, published 2025)
Read-outs that look alike come from different tables or passages of the source.

How the values were obtained:
pERK in NCI-H358 cells = assay: Cell-based pERK HTRF assay; conditions: 30 min incubation, read-out: pERK in NCI-H358 cell inhibition IC50
Method in brief: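 Cells seeded at 4×10^4/well in RPMI with 10% FBS, then next day treated for 30 min with a 9-point, 3-fold series from 75 μM top concentration at 0.25% DMSO. Lysates were read for pERK by HTRF (d2/Eu cryptate antibodies) after 4–24 h at room temperature, emission at 615 nm.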

[1] = target: T1, GppNHp-loaded KRAS4b (amino acids 1-169) G12C/C118S protein (Homo sapiens, UniProt P01116, C118S/G12C); assay: Covalent cysteine 12 modification by MALDI-TOF MS, GppNHp-loaded KRAS G12C; format: binding; conditions: 15 minutes reaction time point
T1 construct: KRAS4b (amino acids 1-169) G12C/C118S protein; made in house
Method in brief: (§1)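 KRAS4b 1-169 G12C/C118S loaded with GDP, GppNHp or GTP was used at 1 μM in 20 mM HEPES, 150 mM NaCl, 1 mM MgCl2, pH 7.3, and incubated with compound (5 mM DMSO stock) at room temperature in the dark. % modification at 15 min is adduct peak height over total protein peak heights by linear-mode MALDI-TOF.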

[2] = target: T2, GDP-loaded KRAS4b (amino acids 1-169) G12C/C118S protein (Homo sapiens, UniProt P01116, C118S/G12C); assay: Covalent cysteine 12 modification by MALDI-TOF MS, GDP-loaded KRAS G12C; format: binding; conditions: 15 minutes reaction time point
T2 construct: KRAS4b (amino acids 1-169) G12C/C118S protein; made in house
Method in brief: as §1

[3] = target: T3, GTP-loaded KRAS4b (amino acids 1-169) G12C/C118S protein (Homo sapiens, UniProt P01116, C118S/G12C); assay: Covalent cysteine 12 modification by MALDI-TOF MS, GTP-loaded KRAS G12C; format: binding; conditions: 15 minutes reaction time point
T3 construct: KRAS4b (amino acids 1-169) G12C/C118S protein; made in house
Method in brief: as §1

[4] = target: T4, Avi-KRAS G12C (1-169) GppNHp/RAF1 RBD-3×FLAG (52-151) (Homo sapiens, UniProt P01116, G12C); assay: Raf1 RBD-KRAS G12C-GppNHp disruption (protein:protein interaction HTRF assay); format: biochemical
T4 construct: Avi-KRAS G12C (1-169) GppNHp/RAF1 RBD-3×FLAG (52-151)
Method in brief: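 HTRF measuring disruption of 50 nM Avi-KRAS G12C (1-169) loaded with GppNHp binding RAF1 RBD-3×FLAG (52-151), in pH 7.5 Tris buffer with 5 mM MgCl2, 0.1% BSA, 10% DMSO. KRAS preincubated with compound 1 h, then RBD 1 h, then detection reagents 1 h, all at room temperature. Compound titration 30-0.02 μM; activity expressed as percent of DMSO control.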

Structure (SMILES)	IC50 (pERK in NCI-H358 cells; Homo sapiens, NCI-H358, 0.5 h) [nM]	GppNHp-KRAS G12C percent of modification [1]	GDP-KRAS G12C percent of modification [2]	GTP-KRAS G12C percent of modification [3]	IC50 [4] [nM]	IC50 (pERK in NCI-H358 cells) [nM]
C=CC(=O)N1CC[C@@H](Oc2nc(OC[C@@]34CCCN3C[C@H](F)C4)nc3cc(-c4ccc(F)c5sc(N)c(C#N)c45)c(F)cc23)[C@@H]1C [Compound 119]	> 1000	D (percent of modification <10%)	B (50≤percent of modification <70%)	D (percent of modification <10%)	5000 to 20000	–
C=CC(=O)N1C[C@H](Oc2nc(OC[C@@]34CCCN3C[C@H](F)C4)nc3c(F)c(-c4ccc(F)c5sc(N)nc45)c(C(F)(F)F)cc23)C[C@H]1CO [Compound 66]	≤ 100	A (percent of modification ≥70%)	A (percent of modification ≥70%)	C (10%≤modification <50%)	≤ 500	–
C=CC(=O)N1CC[C@@H](Oc2nc(OC[C@@]34CCCN3C[C@H](F)C4)nc3c(F)c(-c4ccc(F)c5sc(N)c(C#N)c45)c(C(F)(F)F)cc23)[C@H]1COC (atropisomer, axis not shown) [Compound 95]	≤ 100	A (percent of modification ≥70%)	A (percent of modification ≥70%)	A (percent of modification ≥70%)	≤ 500	–
C=CC(=O)N1CC[C@@H](Oc2nc(OC[C@@]34CCCN3C[C@H](F)C4)nc3cc(-c4ccc(F)c5sc(N)c(C#N)c45)c(C#N)cc23)[C@H]1C [Compound 107]	≤ 100	A (percent of modification ≥70%)	A (percent of modification ≥70%)	C (10%≤modification <50%)	≤ 500	–
C=CC(=O)N1C[C@H](Oc2nc(OC[C@@]34CCCN3C[C@H](F)C4)nc3c(F)c(-c4ccc(F)c5sc(N)nc45)c(C(F)(F)F)cc23)C[C@@H]1CO [Compound 69]	≤ 100	A (percent of modification ≥70%)	A (percent of modification ≥70%)	C (10%≤modification <50%)	≤ 500	–
C=CC(=O)N1CC[C@@H](Oc2nc(OC[C@@]34CCCN3C[C@H](F)C4)nc3c(F)c(-c4ccc(F)c5sc(N)c(C#N)c45)ccc23)[C@H]1COC [Compound 97]	≤ 100	A (percent of modification ≥70%)	A (percent of modification ≥70%)	A (percent of modification ≥70%)	≤ 500	–
C=CC(=O)N1CC[C@@H](Oc2nc(OC[C@@]34CCCN3C[C@H](F)C4)nc3c(F)c(-c4ccc(F)c5sc(N)c(C#N)c45)c(C(F)(F)F)cc23)[C@H]1C (single isomer, unassigned) [Compound 63]	–	A (percent of modification ≥70%)	A (percent of modification ≥70%)	A (percent of modification ≥70%)	≤ 500	≤ 100
C=CC(=O)N1CC[C@@H](Oc2nc(OC[C@@]34CCCN3C[C@H](F)C4)nc3c(F)c(-c4ccc(F)c5sc(N)c(C#N)c45)ccc23)[C@@H]1CC [Compound 116]	> 1000	D (percent of modification <10%)	C (10%≤modification <50%)	D (percent of modification <10%)	> 20000	–
C=CC(=O)N1CC[C@@H](Oc2nc(OC[C@@H]3CCCN3C)nc3c(F)c(-c4ccc(F)c5sc(N)c(C#N)c45)c(C(F)(F)F)cc23)[C@H]1C [Compound 101]	≤ 100	B (50≤percent of modification <70%)	A (percent of modification ≥70%)	C (10%≤modification <50%)	≤ 500	–
C=CC(=O)N1C[C@H](Oc2nc(OC[C@@]34CCCN3C[C@H](F)C4)nc3c(F)c(-c4ccc(F)c5sc(N)c(C#N)c45)ccc23)C[C@H]1C [Compound 68]	100 to 1000	A (percent of modification ≥70%)	A (percent of modification ≥70%)	C (10%≤modification <50%)	≤ 500	–
C=CC(=O)N1CCC(Oc2nc(N3CC(N4CC5(CC5)C4)C3)nc3c(F)c(-c4ccc(F)c5sc(N)c(C#N)c45)c(C(F)(F)F)cc23)C1 (centres unmarked) [Compound 78]	≤ 100	C (10%≤modification <50%)	C (10%≤modification <50%)	D (percent of modification <10%)	≤ 500	–
C=CC(=O)N1CC[C@@H](Oc2nc(OC[C@@]34CCCN3C[C@H](F)C4)nc3c(F)c(-c4ccc(F)c5sc(N)c(C#N)c45)c(C(F)(F)F)cc23)[C@H]1CC [Compound 114]	≤ 100	C (10%≤modification <50%)	C (10%≤modification <50%)	C (10%≤modification <50%)	≤ 500	–
C=CC(=O)N1CC[C@@H](Oc2nc(OC[C@@]34CCCN3C[C@H](F)C4)nc3c(F)c(-c4ccc(F)c5sc(N)c(C#N)c45)ncc23)[C@H]1C [Compound 73, 4-(4-(((2R,3R)-1-acryloyl-2-methylpyrrolidin-3-yl)oxy)-8-fluoro-2-(((2R,7aS)-2-fluorotetrahydro-1H-pyrrolizin-7a (5H)-yl)methoxy)pyrido[4,3-d]pyrimidin-7-yl)-2-amino-7-fluorobenzo[b]thiophene-3-carbonitrile]	≤ 100	A (percent of modification ≥70%)	A (percent of modification ≥70%)	A (percent of modification ≥70%)	≤ 500	–
C=CC(=O)N1C[C@H](Oc2nc(OC[C@@]34CCCN3C[C@H](F)C4)nc3c(F)c(-c4ccc(F)c5sc(N)c(C#N)c45)c(C(F)(F)F)cc23)C[C@H]1COC (atropisomer, axis not shown) [Compound 89]	–	B (50≤percent of modification <70%)	A (percent of modification ≥70%)	B (50≤percent of modification <70%)	≤ 500	≤ 100
C=CC(=O)N1CC[C@@H](Oc2nc(OC[C@@]34CCCN3C[C@H](F)C4)nc3cc(-c4ccc(F)c5sc(N)c(C#N)c45)c(C#N)cc23)[C@@H]1COC [Compound 128]	> 1000	D (percent of modification <10%)	C (10%≤modification <50%)	D (percent of modification <10%)	> 20000	–
C=CC(=O)N1CC[C@@H](Oc2nc(OC[C@@]34CCCN3C[C@H](F)C4)nc3c(F)c(-c4ccc(F)c5sc(N)c(C#N)c45)ccc23)[C@H]1CC [Compound 108]	≤ 100	C (10%≤modification <50%)	A (percent of modification ≥70%)	C (10%≤modification <50%)	≤ 500	–
C=CC(=O)N1C[C@@H](F)[C@@H](Oc2nc(OC[C@@]34CCCN3C[C@H](F)C4)nc3c(F)c(-c4ccc(F)c5sc(N)nc45)ccc23)C1 [Compound 82]	≤ 100	B (50≤percent of modification <70%)	A (percent of modification ≥70%)	C (10%≤modification <50%)	≤ 500	–
C=CC(=O)N1CC[C@@H](Oc2nc(OC[C@@]34CCCN3C[C@H](F)C4)nc3cc(-c4ccc(F)c5sc(N)c(C#N)c45)c(F)cc23)[C@H]1COC [Compound 113]	> 1000	D (percent of modification <10%)	C (10%≤modification <50%)	D (percent of modification <10%)	> 20000	–
C=CC(=O)N1C[C@H](Oc2nc(OC[C@@]34CCCN3C[C@H](F)C4)nc3c(F)c(-c4ccc(F)c5sc(N)c(C#N)c45)c(C(F)(F)F)cc23)[C@@H](F)C1 [Compound 67]	≤ 100	B (50≤percent of modification <70%)	B (50≤percent of modification <70%)	B (50≤percent of modification <70%)	≤ 500	–
